Test results as given in patent US5569670A, “Combination medications containing alpha-lipoic acid and related” (Asta Medica Aktiengesellschaft, priority 1992, dated 1996).
Where two headings read alike, the source gives them in different places.

Experiments:
in vivo [1] = details: mouse, in vivo
[2] = cited from earlier work
in vivo [3] = details: rat, in vivo
mouse = experiment: in vivo
rat = experiment: in vivo
[4] = cited from earlier work; remark: listed apart in the source
[5] = po, oral administration, LITCHFIELD and WILCOXON method, read-out: acute toxicity LD50

Molecule: O=C(O)CCCC[C@@H]1CCSS1 [R-alpha-lipoic acid]
- LD50 (in vivo [1]; [5]): > 1000 mg/kg
- predominant effect of the enantiomer (anti-inflammatory) ([2]; in vivo): predominantly anti-inflammatory effect
- anti-inflammatory effect relative to the racemate ([2]; x times stronger than the racemate): 10 times

Molecule: O=C(O)CCCCC1CCSS1 (racemic) [alpha-lipoic acid (racemate), 1,2-dithia-cyclopentane-3-valeric acid]
- LD50 (in vivo [1]; po, female, read-out: LD50): 460 mg/kg
- LD50 (in vivo [1]; po, male, read-out: LD50): 502 mg/kg
- LD50 (in vivo [3]; po, female): 1210 mg/kg
- LD50 (in vivo [3]; po, male): 1190 mg/kg

Molecule: Vitamin B6
- LD50 (mouse; i.v.): 1020 mg/kg
- LD50 (mouse; p.o.): 8400 mg/kg
- LD50 (rat; i.v.): 1450 mg/kg
- LD50 (rat; p.o.): 5500 to 15900 mg/kg

Molecule: O=C(O)CCCC[C@H]1CCSS1 [S-alpha-lipoic acid]
- predominant effect of the enantiomer (antinociceptive) ([4]; in vivo): predominantly antinociceptive effect
- antinociceptive (analgesic) effect relative to the racemate ([4]; up to x times stronger than the racemate): up to 6 times
- LD50 (in vivo [1]; [5]): > 1000 mg/kg

Molecule: O=C1O[C@H]([C@@H](O)CO)C(O)=C1O [Vitamin C, ascorbic acid]
- LD50 (in vivo [1]; iv, read-out: LD50): 1060 mg/kg
- LD50 (in vivo [1]; po, read-out: LD50): 8020 mg/kg
- LD50 (in vivo [3]; iv): 1000 mg/kg
- LD50 (in vivo [3]; po): > 5000 mg/kg
